In brackets after ≈: the same amount, converted by molar mass.
Test system: mit Crotonöl induzierten Rattenohroedems
Test: Croton oil-induced rat ear oedema, method of Tonelli and Thibault, local application
Type: in vivo, Normalratte
Conditions: inhibition of croton oil-induced rat ear oedema in the normal rat
Method: Diese Eigenschaft lässt sich beispielsweise nach der von G. Tonelli, L. Thibault, Endocrinology 77, 625 (1965) entwickelten Methode durch Hemmung des mit Crotonöl induzierten Rattenohroedems bei der Normalratte im Dosisbereich von etwa 1 bis etwa 100 mg/ml nachweisen.

## CCOC(=O)Cc1nc(-c2ccccc2)c(-c2cccnc2)[nH]1 [2-[4-Phenyl-5-(3-pyridyl)-imidazol-2-yl]-essigsäureethylester]
  ED50-Wert: 17 mg/mL (≈ 55.3 mM)

Reference: patent EP0084756A1, “Trisubstituted oxaza compounds” (CIBA-GEIGY AG, priority 1982, dated 1983)
